Test results from US7214669B2, “Tetracycline derivatives and methods of use thereof” (Tetragenex Pharmaceuticals, Inc., priority 2001, dated 2007).

Experiments:
Human recombinant MMP1 = target: T1, Human recombinant MMP1 (Homo sapiens, UniProt P03956); experiment: MMP1 (Collagenase-1) inhibition, 14C collagen release; type: biochemical; settings: 35° C., 5 hours; read-out: MMP-1 inhibitory activity, IC50
T1 sequence (P03956 100-469): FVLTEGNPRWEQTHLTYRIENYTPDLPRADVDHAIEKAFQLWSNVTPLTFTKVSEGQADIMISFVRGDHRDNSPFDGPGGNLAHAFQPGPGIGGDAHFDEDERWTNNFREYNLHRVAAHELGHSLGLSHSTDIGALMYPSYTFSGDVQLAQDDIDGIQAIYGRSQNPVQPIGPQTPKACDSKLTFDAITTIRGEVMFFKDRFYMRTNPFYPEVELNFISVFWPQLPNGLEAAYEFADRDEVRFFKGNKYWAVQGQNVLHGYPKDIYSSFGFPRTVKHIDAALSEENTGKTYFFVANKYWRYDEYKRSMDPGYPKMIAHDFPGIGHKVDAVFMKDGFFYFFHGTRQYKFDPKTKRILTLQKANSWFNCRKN

Human recombinant MMP14 = Human recombinant MMP14 (Homo sapiens, UniProt P50281); experiment: MMP14 (MTI-MMP) inhibition, 14C collagen release; type: biochemical; settings: 35° C., 15 hours; read-out: MMP-14 inhibitory activity, IC50
Human recombinant MMP7 = target: T2, Human recombinant MMP7 (Homo sapiens, UniProt P09237); experiment: MMP7 (Matrilysin) inhibition, 14C casein release; type: biochemical; settings: 37° C., 16 hours; read-out: MMP-7 inhibitory activity, IC50
T2 sequence (P09237 95-267): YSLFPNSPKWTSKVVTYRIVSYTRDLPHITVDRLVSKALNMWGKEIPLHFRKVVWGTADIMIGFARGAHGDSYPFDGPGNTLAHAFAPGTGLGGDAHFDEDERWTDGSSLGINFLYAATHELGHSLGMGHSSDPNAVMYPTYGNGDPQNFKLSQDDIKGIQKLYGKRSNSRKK

[1] = system: C8161 human melanoma cells; experiment: Membrane Invasion Culture System (MICS) chemo-invasion assay; type: cell-based; settings: 24 hours, + = increased invasiveness
Procedure, shortened: (§1)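 Fifty thousand cells were seeded above a 35 μm laminin/collagen IV/gelatin barrier on a 10 μm-pore filter, with serum-free RPMI plus 50% fibroblast-conditioned medium below as chemoattractant. Compound at 1, 10 or 25 μg/ml, or DMSO vehicle, was present for 24 h. Invaded cells were collected, Wright-stained and counted over 5 fields.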

MMP2 (Gelatinase A) = target: T3, MMP2 (Gelatinase A) (Homo sapiens, UniProt P08253); experiment: MMP2 (Gelatinase A) inhibition, 14C gelatin release; type: biochemical; settings: 37° C., 16 hours; read-out: MMP-2 inhibitory activity, IC50
T3 sequence (P08253 110-660): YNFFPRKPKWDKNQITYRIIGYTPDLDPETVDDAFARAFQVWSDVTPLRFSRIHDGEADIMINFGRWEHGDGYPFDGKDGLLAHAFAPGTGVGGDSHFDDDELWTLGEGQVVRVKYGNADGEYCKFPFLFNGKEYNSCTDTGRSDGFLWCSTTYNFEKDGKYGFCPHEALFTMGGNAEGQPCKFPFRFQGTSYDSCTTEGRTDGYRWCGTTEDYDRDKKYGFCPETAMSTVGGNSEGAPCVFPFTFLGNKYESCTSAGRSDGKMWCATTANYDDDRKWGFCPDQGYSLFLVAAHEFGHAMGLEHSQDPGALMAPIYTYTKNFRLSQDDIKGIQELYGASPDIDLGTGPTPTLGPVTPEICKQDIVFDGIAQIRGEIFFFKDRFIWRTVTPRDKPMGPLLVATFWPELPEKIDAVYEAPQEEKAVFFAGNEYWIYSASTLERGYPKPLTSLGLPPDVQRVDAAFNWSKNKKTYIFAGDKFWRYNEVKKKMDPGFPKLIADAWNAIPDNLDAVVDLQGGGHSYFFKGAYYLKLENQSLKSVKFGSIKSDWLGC

Human recombinant MMP9 = Human recombinant MMP9 (Homo sapiens, UniProt P14780); experiment: MMP9 (Gelatinase B) inhibition, 14C gelatin release; type: biochemical; settings: 37° C., 16 hours; read-out: MMP-9 inhibitory activity, IC50
Human recombinant MMP9, sequence (P14780 94-707): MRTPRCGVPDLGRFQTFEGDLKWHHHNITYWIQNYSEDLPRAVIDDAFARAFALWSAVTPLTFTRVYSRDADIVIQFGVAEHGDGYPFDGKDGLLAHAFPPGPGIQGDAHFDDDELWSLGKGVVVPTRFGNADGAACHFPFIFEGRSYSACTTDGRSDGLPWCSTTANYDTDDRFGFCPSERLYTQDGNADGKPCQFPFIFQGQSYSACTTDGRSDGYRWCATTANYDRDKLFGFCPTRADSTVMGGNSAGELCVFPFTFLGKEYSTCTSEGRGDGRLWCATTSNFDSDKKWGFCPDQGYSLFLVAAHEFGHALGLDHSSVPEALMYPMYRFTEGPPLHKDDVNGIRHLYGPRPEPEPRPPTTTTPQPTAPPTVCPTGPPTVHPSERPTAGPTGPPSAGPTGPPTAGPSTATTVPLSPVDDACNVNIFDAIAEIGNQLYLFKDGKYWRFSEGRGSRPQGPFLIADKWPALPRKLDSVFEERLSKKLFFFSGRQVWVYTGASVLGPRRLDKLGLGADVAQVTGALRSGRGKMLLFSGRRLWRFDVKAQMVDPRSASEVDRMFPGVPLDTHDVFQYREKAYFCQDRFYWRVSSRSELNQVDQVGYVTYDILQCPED

Human recombinant MMP3 = Human recombinant MMP3 (Homo sapiens, UniProt P08254); experiment: MMP3 (Stromelysin 1) inhibition, 14C casein release; type: biochemical; settings: 37° C., 16 hours; read-out: MMP-3 inhibitory activity, IC50
Human recombinant MMP3, sequence (P08254 100-477): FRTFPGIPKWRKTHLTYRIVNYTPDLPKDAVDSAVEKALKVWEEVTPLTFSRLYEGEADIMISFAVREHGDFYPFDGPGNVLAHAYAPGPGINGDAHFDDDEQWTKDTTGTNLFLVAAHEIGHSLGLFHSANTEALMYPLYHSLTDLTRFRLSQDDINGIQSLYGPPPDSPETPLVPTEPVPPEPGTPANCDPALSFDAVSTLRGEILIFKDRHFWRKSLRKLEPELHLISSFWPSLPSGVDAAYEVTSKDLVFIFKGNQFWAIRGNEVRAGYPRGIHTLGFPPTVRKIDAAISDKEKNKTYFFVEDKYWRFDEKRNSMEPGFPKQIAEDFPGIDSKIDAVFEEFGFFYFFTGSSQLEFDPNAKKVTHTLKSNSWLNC

[2] = system: MDA-MB-231 human breast cancer cells; experiment: Membrane Invasion Culture System (MICS) chemo-invasion assay; type: cell-based; settings: 24 hours, + = increased invasiveness
Procedure, shortened: as §1

[3] = system: RPMI-8226 human myeloma cancer cells; experiment: as above; type: cell-based; settings: 24 hours, + = increased invasiveness
Procedure, shortened: as §1

[4] = system: PC-3 ML human prostate cancer cells; experiment: as above; type: cell-based; settings: 24 hours, + = increased invasiveness
Procedure, shortened: as §1

IC50 (Human recombinant MMP1) | IC50 (Human recombinant MMP14) | IC50 (Human recombinant MMP7) | IC50 (MMP2 (Gelatinase A)) | IC50 (Human recombinant MMP9) | IC50 (Human recombinant MMP3) | SMILES | percent inhibition, C8161 (Melanoma) ([1]; 1 ug/mL) | percent inhibition, C8161 (Melanoma) ([1]; 10 ug/mL) | percent inhibition, C8161 (Melanoma) ([1]; 25 ug/mL) | percent inhibition, MDA-MB-231 (Breast) ([2]; 1 ug/mL) | percent inhibition, MDA-MB-231 (Breast) ([2]; 10 ug/mL) | percent inhibition, MDA-MB-231 (Breast) ([2]; 25 ug/mL) | percent inhibition, RPMI-8226 (Multiple Myeloma) ([3]; 1 ug/mL) | percent inhibition, RPMI-8226 (Multiple Myeloma) ([3]; 10 ug/mL) | percent inhibition, RPMI-8226 (Multiple Myeloma) ([3]; 25 ug/mL) | percent inhibition, PC-3 ML (Prostrate) ([4]; 1 ug/mL) | percent inhibition, PC-3 ML (Prostrate) ([4]; 10 ug/mL) | percent inhibition, PC-3 ML (Prostrate) ([4]; 25 ug/mL)
– | > 1000 µM | 335 µM | > 1000 µM | 64 µM | 300 µM | CN(C)c1cc(N)c(O)c2c1CC1CC3C(N(C)C)C(O)=C(C(N)=O)C(=O)C3(O)C(O)=C1C2=O (centres unmarked) [Compound 7, 9-Amino-7-dimethylamino-6-demethyl-6-deoxytetracycline H2SO4] | 7% | 14% | 16% | +18% | +41^B percent | +27% | +14^B percent | 12% | +2% | 0% | 0% | 3%
427 µM | 46 µM | > 1000 µM | > 1000 µM | 96 µM | 270 µM | CC1c2ccc([N+]#N)c(O)c2C(=O)C2=C(O)C3(O)C(=O)C(C(N)=O)=C(O)C(N(C)C)C3C(O)C21 (centres unmarked) [Compound 11, 6-Deoxy-5-hydroxytetracycline-9-diazonium H2SO4] | 16% | 46^B percent | 41^B percent | 6% | 15% | 36^B percent | – | – | – | +3% | 0% | 36^B percent
409 µM | 61 µM | 278 µM | 421 µM | 36 µM | 219 µM | CN(C)c1cc([N+](=O)[O-])c(O)c2c1CC1CC3C(N(C)C)C(O)=C(C(N)=O)C(=O)C3(O)C(O)=C1C2=O (centres unmarked) [Compound 4, 7-Dimethylamino-6-demethyl-6-deoxy-9-nitrotetracycline H2SO4] | 27^B percent | 24^B percent | 17% | 5% | 6% | 2% | +4% | +5% | +14% | 10% | +8% | 3%
> 1000 µM | 768 µM | 716 µM | 234 µM | 402 µM | 738 µM | CC1c2c(N(C)C)ccc(O)c2C(=O)C2=C(O)C3(O)C(=O)C(C(N)=O)=C(O)C(N(C)C)C3C(O)C21 (centres unmarked) [Compound 15, 7-Dimethylamino-6-deoxy-5-hydroxy-tetracycline H2SO4] | – | – | – | – | – | – | – | – | – | – | – | –
211 µM | 40 µM | – | 2530 µM | 34 µM | 48 µM | CC1c2c([N+]#N)cc(C(C)(C)C)c(O)c2C(=O)C2=C(O)C3(O)C(=O)C(C(N)=O)=C(O)CC3C(O)C21 (centres unmarked) [Compound 50, 4-Dedimethylamino-9-tertbutyl-6-deoxy-5-hydroxytetracycline-7-diazonium H2SO4] | 5% | +2% | 1% | 7% | 0% | 2% | +14% | +8% | +13% | +14% | +17% | +10%
194 µM | 90 µM | – | 3800 µM | 59 µM | 42 µM | CC1c2cccc(O)c2C(=O)C2=C(O)C3(O)C(=O)C(C(N)=O)=C(O)C([N+](C)(C)C)C3C(O)C21.[I-] (centres unmarked) [Compound 46, 6-deoxy-5-hydroxytetracycline-4-Methiodide] | 21% | 7% | 10% | 20^B percent | +5% | +1% | 7% | +11% | 12% | 20% | 16% | 27^B percent
452 µM | 715 µM | 569 µM | 215 µM | 215 µM | > 1000 µM | CC(=O)Nc1ccc2c(c1O)C(=O)C1=C(O)C3(O)C(=O)C(C(N)=O)=C(O)C(N(C)C)C3C(O)C1C2C (centres unmarked) [Compound 16, 9-Acetamido-6-deoxy-5-hydroxytetracycline H2SO4] | – | – | – | – | – | – | – | – | – | – | – | –
> 1000 µM | > 1000 µM | 388 µM | 599 µM | > 1000 µM | 232 µM | CC(=O)Nc1cc(N(C)C)c2c(c1O)C(=O)C1=C(O)C3(O)C(=O)C(C(N)=O)=C(O)C(N(C)C)C3CC1C2 (centres unmarked) [Compound 8, 9-Acetamido-7-dimethylamino-6-demethyl-6-deoxytetracycline H2SO4] | 13^B percent | 41^B percent | 40^B percent | +10% | +5% | +13% | 11% | 3% | +2% | 0% | +4% | 0%

SMILES | IC50 (Human recombinant MMP1) | IC50 (Human recombinant MMP14) | IC50 (Human recombinant MMP7) | IC50 (MMP2 (Gelatinase A)) | IC50 (Human recombinant MMP9) | IC50 (Human recombinant MMP3) | percent inhibition, C8161 (Melanoma) ([1]; 1 ug/mL) | percent inhibition, C8161 (Melanoma) ([1]; 10 ug/mL) | percent inhibition, C8161 (Melanoma) ([1]; 25 ug/mL) | percent inhibition, MDA-MB-231 (Breast) ([2]; 1 ug/mL) | percent inhibition, MDA-MB-231 (Breast) ([2]; 10 ug/mL) | percent inhibition, MDA-MB-231 (Breast) ([2]; 25 ug/mL) | percent inhibition, RPMI-8226 (Multiple Myeloma) ([3]; 1 ug/mL) | percent inhibition, RPMI-8226 (Multiple Myeloma) ([3]; 10 ug/mL) | percent inhibition, RPMI-8226 (Multiple Myeloma) ([3]; 25 ug/mL) | percent inhibition, PC-3 ML (Prostrate) ([4]; 1 ug/mL) | percent inhibition, PC-3 ML (Prostrate) ([4]; 10 ug/mL) | percent inhibition, PC-3 ML (Prostrate) ([4]; 25 ug/mL)
C[C@H]1c2c(N)ccc(O)c2C(=O)C2=C(O)[C@]3(O)C(=O)C(C(N)=O)=C(O)[C@@H](N(C)C)[C@@H]3[C@@H](O)[C@@H]21.O=S(=O)(O)O [Compound 12, 7-Amino-6-deoxy-5-hydroxytetracycline H2SO4] | > 1000 µM | > 1000 µM | 503 µM | > 1000 µM | 270 µM | – | +11% | +13% | +12% | – | – | – | – | – | – | – | – | –
